Measurements: patent US8697747B2, “Enhancing coagulation or reducing fibrinolysis” (THe UAB Research Foundation, priority 2009, dated 2014)

Key:
Format in all cases: biochemical, human
[1] = test system: FXIII deficient plasma; test: CLSM thrombelastography with tPA, FXIII deficient plasma; conditions: 100 μM CORM-2, tPA 100 IU/mL, median, n=8
Method: (§1) Pooled normal plasma (George King Bio-Medical, Overland Park, Kans.) anticoagulated with sodium citrate was utilized for experimentation. […] Factor XIII (FXIII) deficient plasma anticoagulated with sodium citrate was also obtained from the same vendor.
(§2) Plasma Sample Composition. The final volume for all subsequently described plasma sample mixtures was 359.4 μL. Sample composition consisted of 316 μL of plasma; 10 μL of tissue factor (0.1% final concentration in 0.9% NaCl; Diagnostica Stago, Asnieres, France), 3.6 μL of dimethyl sulfoxide (DMSO) or DMSO with CORM-2 (Sigma-Aldrich, St. Louis, Mo.) or DMSO with inactivated CORM-2 (iCORM-2), 10 μL of tissue-type plasminogen activator (tPA, 580 U/μg, Genentech, Inc., San Francisco, Calif.) diluted with 10 mM potassium phosphate buffer (pH 7.4) for a final activity of 100 IU/mL, and 20 μL of 200 mM CaCl2. […] This concentration of CORM-2 was chosen because the concentration of CO released would be expected to be in the mid to lower ranges used in previously reported ex vivo, in vitro, and cell-based experiments (Motterlini et al. 2002; Megias et al. 2007; Chlopicki et al. 2006; Dong et al. 2008). […] (Motterlini et al. 2005). While CORM-2 decays slowly in DMSO, DMSO was added to the dry compound just prior to placement into the plasma mixture. The specific series of experiments are subsequently presented.
Assessment of the Effects of CORM-2 on CLSM Parameters in FXIII, PAI-1, TAFI and α2-antiplasmin Deficient Plasmas. These experiments were performed to elucidate the roles played by antifibrinolytic enzymes during CORM-2 mediated modulation of fibrinolysis. Samples of the various deficient plasmas were exposed to 0 or 100 μM of CORM-2 (n=8 per condition). Samples underwent CLSM analyses as subsequently described.
(§3) Clot Lifespan Model Analyses. As described in Example 1, plasma sample mixtures were placed in a disposable cup in a computer-controlled THROMBELASTOGRAPH® hemostasis system (Model 5000, Haemoscope Corp., Niles, Ill.), with addition of CaCl2 as the last step to initiate clotting. Data were collected until clot lysis time occurred. […] As this model involves complete fibrinolysis, TTG is equivalent to ACL, so ACL was not presented as it provides no additional information.
(§4) Statistical Analyses. Data are presented as median (1st, 3rd quartiles). […] Nonlinear and linear analyses and curve fitting of the various CORM-2 concentrations effects on CLSM variables were performed with commercially available software (SigmaPlot 11.0, Systat Software, Inc., San Jose, Calif.). Analyses of the effects of CORM-2 and iCORM-2 on CLSM variables in normal plasma were conducted with Kruskal-Wallis one way analysis of variance on ranks, whereas Mann-Whitney rank sum tests were used to assess the effects of CORM-2 on CLSM variables in the various immunodepleted/congenitally deficient plasma types (SigmaStat 3.1, Systat Software, Inc., San Jose, Calif.). Graphical representation of the data was generated with commercially available software (SigmaPlot 11.0, Systat Software, Inc., San Jose, Calif.; CorelDRAW 12.0, Corel Corporation, Ottawa, Ontario, Canada; Origin 7.5, OriginLab Corp., Northampton, Mass.). A P value of <0.05 was considered significant.

[2] = test system: pooled normal plasma; test: Thrombelastographic coagulation kinetics, tissue factor-activated normal plasma; conditions: 100 μM
Method: Pooled normal plasma (George King Bio-Medical, Overland Park, Kans.) anticoagulated with sodium citrate was utilized for experimentation. […] Factor XIII (FXIII) deficient plasma anticoagulated with sodium citrate was also obtained from George King Bio-Medical (Overland Park, Kans.).
Plasma Sample Composition. The final volume for all subsequently described plasma sample mixtures was 359.4 μL. […] (Motterlini et al., Expert Opin Investig Drugs, 14:1305-1318 (2005), which is incorporated by reference herein in its entirety).
Clot Lifespan Model Analyses. Plasma sample mixtures were placed in a disposable cup in a computer-controlled THROMBELASTOGRAPH® hemostasis system (Model 5000, Haemoscope Corp., Niles, Ill.), with addition of CaCl2 as the last step to initiate clotting. Data were collected for 15 minutes, as normal plasma completes thrombus formation within this interval in this system (Dong et al., Eur J Pharmacol 590:99-104 (2008)).
Statistical Analyses. Data are presented as mean±SD. All conditions described were represented with n=8 experiments, as n=6-8 typically provides statistical power>0.8 in similar analyses (Nielsen et al., Acta Anaesthesiol Scand 49:222-231 (2005) and Nielsen et al., Blood Coagul Fibrinolysis 17:75-81 (2006)). Analyses of the effects of CORM-2 and iCORM-2 on thrombelastographic variables were conducted using one way analysis of variance with the Holm-Sidak test used for post hoc comparisons. Graphical representation of the data was generated with commercially available software (Origin 7.5, OriginLab Corp., Northampton, Mass.). A P value of ≦0.05 was considered significant.

[3] = test system: pooled normal plasma; test: Clot lifespan model (CLSM) thrombelastography with tPA, normal plasma; conditions: 100 μM
Method: as §1, §2
Concentration-Response Relationships of CORM-2 and iCORM-2 with Clot Lifespan Model (CLSM) Parameters. Normal plasma was exposed to 0, 25, 50, 100 or 200 μM CORM-2 (n=4 per concentration. Additional plasma samples were exposed to 25, 50 or 100 μM iCORM-2 (n=4 per concentration). Samples underwent CLSM analyses as subsequently described.
Comparison of the Effects of CORM-2 and iCORM-2 on CLSM Parameters in Normal Plasma. Given the results of the aforementioned experiments, additional samples of normal plasma were exposed to 0 or 100 μM of CORM-2 or iCORM-2 (n=4 per additional sample condition, n=8 per condition for final analyses). Samples underwent CLSM analyses as subsequently described.
as §3, §4

[4] = TF-activated normal plasma, mean ± SD, n=8

## [C-]#[O+].[C-]#[O+].[C-]#[O+].[C-]#[O+].[C-]#[O+].[C-]#[O+].[Cl][Ru][Cl].[Cl][Ru][Cl] [CORM-2, tricarbonyldichlororuthenium (II) dimer]
[1]
  CGT (clot growth time): 820 s
  CLS (clot lifespan): 2258 s
  CLT (clot lysis time): 1460 s
  MRL (maximum rate of lysis): −1.0 -dynes/cm^2/sec
  MRTG (maximum rate of thrombus generation): 5.8 dynes/cm^2/sec
  TMRL (time to maximum rate of lysis): 855 s
  TMRTG (time to maximum rate of thrombus generation): 195 s
  TTG (total thrombus generation): 160 dynes/cm^2
[2]; [4]
  MRTG (maximum rate of thrombus generation): 9.1 ± 0.9 dynes/cm^2/sec
  TMRTG (time to maximum rate of thrombus generation): 156 ± 13 s
  TTG (total thrombus generation): 273 ± 21 dynes/cm^2
[2]; tissue factor activation
  velocity of clot growth relative to unexposed samples: more than double
[3]; tPA
  delay of the onset of fibrinolysis vs samples not exposed: 258%
  enhancement of strength of the clot vs samples not exposed: 113%
  enhancement of the velocity of growth vs samples not exposed: 120%
  increase in CGT vs 0 μM CORM-2: 126%
  increase in CLS vs 0 μM CORM-2: 145%
  increase in CLT vs 0 μM CORM-2: 143%
[3]; tPA 100 IU/mL, median, n=8
  CGT (clot growth time): 508 s
  CLS (clot lifespan): 2325 s
  CLT (clot lysis time): 1768 s
  MRL (maximum rate of lysis): −1.9 -dynes/cm^2/sec
  MRTG (maximum rate of thrombus generation): 9.7 dynes/cm^2/sec
  TMRL (time to maximum rate of lysis): 1218 s
  TMRTG (time to maximum rate of thrombus generation): 155 s
  TTG (total thrombus generation): 281 dynes/cm^2
